Like-named read-outs stand apart in the source and are kept apart here.
Legend:
[1] = tested on: model of myocardial ischemia-reperfusion injury; assay: Model of myocardial ischemia-reperfusion injury in rats; format: in vivo; conditions: 3 mg/kg i.v. 5 minutes before 5 minutes coronary ligation, 8 rats per group; for Incidence of Ventricular Fibrillation (%) / Incidence of Ventricular Tachycardia (%): monitored 5 minutes after reperfusion; for Mortality Rate (%): then reperfusion
[2] = tested on: ouabain-induced arrhythmia model; assay: Ouabain-induced arrhythmia model in guinea pigs; format: in vivo, guinea pigs (Hartley strain); conditions: dose 3 mg/kg i.v. immediately before ouabain infusion 3 μg/0.1 ml/min
Description: After guinea pigs (Hartley strain, age 6 weeks) were anesthetized with urethane, induction electrodes were attached to the hind limbs and fore limbs, and standard 2-lead electrocardiograms were monitored with an animal electrocardiogram analysis system (ECG-01, Japan Energy). After confirming that the waveforms of the electrocardiogram and heart rate were within the normal range, an incision was made in the epidermis of the neck followed by inserting a breathing tube into the trachea and cannulating a polyethylene tube into the left external jugular vein and left common carotid artery.
Immediately after administering a compound of the present invention dissolved in a physiological saline solution into the right external jugular vein, ouabain was continuously infused at 3 μg/0.1 ml/min through the cannulated polyethylene tube into the left external jugular vein using a syringe pump (Atom Syringe Pump 1235 (trade name), Atom Medical Corporation).
In addition, the polyethylene tube cannulated in the left common carotid artery was connected to a pressure transducer (P23XL, Gould Electronics), and fed to a pressure processor signal conditioner (TA-11, Gould Electronics) to record blood pressure and heart rate on a thermal plate recorder.
The results were assessed by comparing the dose (μg/kg) of ouabain administered until the appearance of arrhythmia and occurrence of cardiac arrest (arrhythmia is not induced even if a large dose of ouabain is administered if antiarrhythmic effects are high). Furthermore, a solvent dose group (administered only physiological saline in an amount equal to that of the test drug groups), and a positive control group administered a typical antiarrhythmic disopyramide phosphate (physiological saline solution), were also provided.

[3] = tested on: model of myocardial ischemia reperfusion injury; assay: Model of myocardial ischemia-reperfusion injury in dogs; format: in vivo; conditions: 3 mg/kg into the femoral vein 10 minutes before 20 minutes coronary occlusion, then reperfusion
Experimental: In order to confirm the efficacy of compounds of the present invention on myocardial infarction and arrhythmia caused by myocardial infarction, a pharmacological study was conducted using a model of myocardial ischemia reperfusion injury in dogs for the compounds used in Example 1.
Dogs having body weights of approximately 10 kg were anesthetized with pentobarbital (trade name) (30 mg/ml/kg) followed by shaving the surgical site after starting artificial respiration. The femoral vein and femoral artery were separated followed by cannulation. The femoral vein was used as the administration route for the test substances, while the femoral artery was used to measure blood pressure.
Next, after opening the left chest, making an incision in the pericardium and exposing the left ventricle, the left coronary artery was separated. A silk suture was passed through the coronary artery to occlude, followed by the attachment of an electromagnetic flow meter probe for measuring blood flow.
In addition, a pair of ultrasound crystal probes was fixed in position to measure changes in ventricular wall length as a indicator of myocardial contractile force, and indwelling needle was installed for measuring left intraventricular pressure. Compounds of the present invention were administered into the femoral vein at 3 mg/kg (15% physiological saline solution) followed 10 minutes later by occluding the coronary artery for 20 minutes, and subsequently reperfusing the coronary artery. Myocardial contraction following ischemia-reperfusion was compared for each group based on a value of 100 for myocardial contraction prior to ischemic reperfusion. In addition, comparisons were also made with a solvent control group administered only physiological saline.

[4] = tested on: middle cerebral artery occlusion and reperfusion model; assay: Cerebral infarction model: middle cerebral artery occlusion and reperfusion (infarct area, neurological symptoms, motor function); format: in vivo, rats (Crj: Wistar strain); set-up: Improvement of neurological symptoms* (total score): scale not given here; conditions: rats, average of 10 animals; for Improvement of neurological symptoms* (total score) / Improvement of motor function (time stayed on rotor rod: seconds): single i.v. dose 3 mg/kg; for Improvement of neurological symptoms* (total score): 24 hours after occlusion, total score per Table 4, smaller = greater effect; for Improvement of motor function (time stayed on rotor rod: seconds): rotor rod 14 rotations per minute, maximum 1 minute; for Cerebral infarction reduction rate (%): single intravenous dose 3 mg/kg immediately before reperfusion, vs physiological saline group, bigger = greater effect
Experimental: In this example, a cerebral infarction model was prepared using rats in which reperfusion injury was induced by ischemia and then reperfusion of the middle cerebral artery using the obturator method. The efficacy of compounds of the present invention following single-dose intravenous administration at dose of 3 mg/kg was evaluated in terms of infarct area, neurological symptoms and motor function.
In addition, Edaravone (trade name, Mitsubishi Pharma Corporation) was used as a reference compound. The compounds of the present invention were stored in a refrigerator under protection from light, while Edaravone (trade name) was stored at room temperature under protection from light.
Compounds of present invention: 2 mL of physiological saline was added directly to tube containing 3 mg aliquots of a compound of the present invention to dissolve and prepare solutions having a concentration of 3 mg/2 mL. These samples were prepared at the time of use.
Edaravone: Since Edaravone is an injectable solution having a concentration of 30 mg/20 mL, the required amounts were divided up and used.
Rats: Crj: Wistar strain, males, age 7 weeks (Charles River Laboratories Japan, Inc.)
The test compounds were administered in a single dose into the tail vein using a 1 mL syringe and 27 G injection needle immediately before the reperfusion.
The rats were anesthetized by intraperitoneal administration of sodium pentobarbital at dose of 40 mg/kg (Nembutal (trade name), Dainippon Pharmaceutical Co., Ltd.), and a middle cerebral artery occlusion and reperfusion model was prepared in accordance with the method of Koizumi et al. (Non-Patent Document 2). Namely, the animals were warmed to 37° C. and held in the dorsal position while breathing spontaneously. A midline cervical incision was made, and then the right external carotid artery and right internal carotid artery were separated without damaging the vagus nerve. The right common carotid artery and right external carotid artery were ligated, and a suture was attached to the origin of the internal carotid artery in preparation for ligation and maintenance of occlusion following insertion of an obturator into the internal carotid artery. Moreover, a small incision was made in the right common carotid artery, an obturator provided with an approximately 17 mm silicon-coated suture was inserted into the internal carotid artery, and the internal carotid artery was ligated. Two hours after ligation, the obturator was removed under unanesthesia to reperfuse. Furthermore, flexion of the contralateral forelimb was confirmed 30 minutes after occlusion of the middle cerebral artery.
The following neurological symptoms were evaluated 24 hours after occlusion of the middle cerebral artery according to the evaluation method of Petullo et al. (Non-Patent Document 3). Neurological symptoms consisted of flexion of the forelimbs, torso twisting, resistance when pushing on the back of the right or left shoulder (Lateral push), circling, return of the hindlimb to the floor when lifted from the floor (Hindlimb placement), behavior when the head is faced downward on an angle (Inverted angle board) and a locomotor activity test.
Flexion of the forelimbs: flexion of the forelimbs was observed when the animals were lifted up by the tail.
Torso twisting: Torso twisting was observed when the animals were lifted up by the tail.
Lateral push: Resistance was observed when pushing on the back of the right or left shoulder.
Hindlimb placement: The animals were observed as to whether or not the hindlimb immediately returns to the floor after being lifted from the floor when placed on a horizontal floor.
locomotor activity: locomotor activity was observed when the animals were placed in a polycarbonate cage.
The aforementioned tests were scored based on the criteria described in the following documents, followed by calculation of total scores (see Table 4 “Neurological Symptom Evaluation Criteria and Scores”). […]

guinea pigs = conditions: guinea pig, in vivo

SMILES: C[N+](C)(C)CCOc1ccc(O)c(C(=O)[O-])c1 [Compound 9]
- Incidence of Ventricular Fibrillation (%) [1]: 25.0%
- Incidence of Ventricular Tachycardia (%) [1]: 75.0%
- Mortality Rate (%) [1]: 12.5%
- Ouabain (μg/kg) administered until Cardiac arrest [2]: 245 µg/kg
- Ouabain (μg/kg) administered until appearance of Arrhythmia [2]: 170 µg/kg
- Myocardial Contraction (%) (Based on a value of 100% for prior to ischemia-reperfusion) [3]: 78%
- Improvement of neurological symptoms* (total score) [4]: 5.95
- Improvement of motor function (time stayed on rotor rod: seconds) [4]: 51.6 s
- Cerebral infarction reduction rate (%) [4]: 51.5%
- Occurrence of Arrhythmia (guinea pigs; 3 mg/kg): No
- Occurrence of cardiac arrest (guinea pigs; 3 mg/kg): No
- Occurrence of Arrhythmia (guinea pigs; 10 mg/kg): No
- Occurrence of cardiac arrest (guinea pigs; 10 mg/kg): No

SMILES: C[N+](C)(C)CCOc1cc(O)cc(C(=O)[O-])c1O [Compound 28]
- Incidence of Ventricular Fibrillation (%) [1]: 12.5%
- Incidence of Ventricular Tachycardia (%) [1]: 62.5%
- Mortality Rate (%) [1]: 12.5%
- Ouabain (μg/kg) administered until Cardiac arrest [2]: 267 µg/kg
- Ouabain (μg/kg) administered until appearance of Arrhythmia [2]: 173 µg/kg
- Myocardial Contraction (%) (Based on a value of 100% for prior to ischemia-reperfusion) [3]: 76%
- Improvement of neurological symptoms* (total score) [4]: 5.85
- Improvement of motor function (time stayed on rotor rod: seconds) [4]: 53.1 s
- Cerebral infarction reduction rate (%) [4]: 54.7%
- Occurrence of Arrhythmia (guinea pigs; 3 mg/kg): No
- Occurrence of cardiac arrest (guinea pigs; 3 mg/kg): No
- Occurrence of Arrhythmia (guinea pigs; 10 mg/kg): No
- Occurrence of cardiac arrest (guinea pigs; 10 mg/kg): No

SMILES: C[N+](C)(C)CCOc1cc(C(=O)[O-])c(O)cc1O [Compound 30]
- Incidence of Ventricular Fibrillation (%) [1]: 12.5%
- Incidence of Ventricular Tachycardia (%) [1]: 62.5%
- Mortality Rate (%) [1]: 12.5%
- Ouabain (μg/kg) administered until Cardiac arrest [2]: 247 µg/kg
- Ouabain (μg/kg) administered until appearance of Arrhythmia [2]: 173 µg/kg
- Myocardial Contraction (%) (Based on a value of 100% for prior to ischemia-reperfusion) [3]: 77%
- Improvement of neurological symptoms* (total score) [4]: 6.50
- Improvement of motor function (time stayed on rotor rod: seconds) [4]: 51.4 s
- Cerebral infarction reduction rate (%) [4]: 42.9%
- Occurrence of Arrhythmia (guinea pigs; 3 mg/kg): No
- Occurrence of cardiac arrest (guinea pigs; 3 mg/kg): No
- Occurrence of Arrhythmia (guinea pigs; 10 mg/kg): No
- Occurrence of cardiac arrest (guinea pigs; 10 mg/kg): No

SMILES: C[N+](C)(C)CCOc1cc(C(=O)[O-])cc(O)c1O [Compound 31]
- Incidence of Ventricular Fibrillation (%) [1]: 0%
- Incidence of Ventricular Tachycardia (%) [1]: 37.5%
- Mortality Rate (%) [1]: 0%
- Ouabain (μg/kg) administered until Cardiac arrest [2]: 259 µg/kg
- Ouabain (μg/kg) administered until appearance of Arrhythmia [2]: 179 µg/kg
- Myocardial Contraction (%) (Based on a value of 100% for prior to ischemia-reperfusion) [3]: 89%
- Improvement of neurological symptoms* (total score) [4]: 5.25
- Improvement of motor function (time stayed on rotor rod: seconds) [4]: 60.0 s
- Cerebral infarction reduction rate (%) [4]: 65.3%
- Occurrence of Arrhythmia (guinea pigs; 3 mg/kg): No
- Occurrence of cardiac arrest (guinea pigs; 3 mg/kg): No
- Occurrence of Arrhythmia (guinea pigs; 10 mg/kg): No
- Occurrence of cardiac arrest (guinea pigs; 10 mg/kg): No

SMILES: C[N+](C)(C)CCOc1ccc(C(=O)[O-])c(O)c1O [Compound 32]
- Incidence of Ventricular Fibrillation (%) [1]: 12.5%
- Incidence of Ventricular Tachycardia (%) [1]: 50.0%
- Mortality Rate (%) [1]: 12.5%
- Ouabain (μg/kg) administered until Cardiac arrest [2]: 243 µg/kg
- Ouabain (μg/kg) administered until appearance of Arrhythmia [2]: 176 µg/kg
- Myocardial Contraction (%) (Based on a value of 100% for prior to ischemia-reperfusion) [3]: 79%
- Improvement of neurological symptoms* (total score) [4]: 5.65
- Improvement of motor function (time stayed on rotor rod: seconds) [4]: 53.5 s
- Cerebral infarction reduction rate (%) [4]: 55.4%
- Occurrence of Arrhythmia (guinea pigs; 3 mg/kg): No
- Occurrence of cardiac arrest (guinea pigs; 3 mg/kg): No
- Occurrence of Arrhythmia (guinea pigs; 10 mg/kg): No
- Occurrence of cardiac arrest (guinea pigs; 10 mg/kg): No

SMILES: C[N+](C)(C)CCOc1ccc(O)c(O)c1C(=O)[O-] [Compound 33]
- Incidence of Ventricular Fibrillation (%) [1]: 12.5%
- Incidence of Ventricular Tachycardia (%) [1]: 50.0%
- Mortality Rate (%) [1]: 0%
- Ouabain (μg/kg) administered until Cardiac arrest [2]: 239 µg/kg
- Ouabain (μg/kg) administered until appearance of Arrhythmia [2]: 171 µg/kg
- Myocardial Contraction (%) (Based on a value of 100% for prior to ischemia-reperfusion) [3]: 82%
- Improvement of neurological symptoms* (total score) [4]: 5.90
- Improvement of motor function (time stayed on rotor rod: seconds) [4]: 52.1 s
- Cerebral infarction reduction rate (%) [4]: 52.6%
- Occurrence of Arrhythmia (guinea pigs; 3 mg/kg): No
- Occurrence of cardiac arrest (guinea pigs; 3 mg/kg): No
- Occurrence of Arrhythmia (guinea pigs; 10 mg/kg): No
- Occurrence of cardiac arrest (guinea pigs; 10 mg/kg): No

SMILES: CC1=NN(c2ccccc2)C(=O)C1 [Edaravone, reference compound]
- Improvement of neurological symptoms* (total score) [4]: 6.10
- Improvement of motor function (time stayed on rotor rod: seconds) [4]: 42.6 s
- Cerebral infarction reduction rate (%) [4]: 37.3%

SMILES: CCN(CC)CC(=O)Nc1c(C)cccc1C [Lidocaine, lidocaine, reference compound]
- Incidence of Ventricular Fibrillation (%) [1]: 12.5%
- Incidence of Ventricular Tachycardia (%) [1]: 62.5%
- Mortality Rate (%) [1]: 12.5%
